pIC50, pKd, pKi: −log10 of the molar value. Read-outs that look alike come from different tables or passages of the source.

Consider nine compounds from patent publication EP1030659B1 (Warner-Lambert Company LLC, priority 1997, dated 1999).

Series [1] addresses T1, β2-receptors (Canis lupus familiaris, UniProt P54833).
T1 construct: The lungs of mongrel dogs were separated from cartilaginous airways and major blood vessels; from tissue; host or cells: mongrel dog lung membranes
The series is described as follows: Beta-2 binding, 125iodocyanopindolol (ICYP), canine lung membranes. Also on record: species or system mongrel dogs.

For series [2], the system named is Male Swiss-Webster mice. Description: Locomotor stimulant effects (horizontal locomotor activity). Type of series: in vivo. Particulars: i.p.; for ED50: Mus musculus, ip, dose resulting in ½ the maximal stimulant effect, read-out: Stimulation Potency (ED50); for locomotor stimulant effects, time course (in words): 2-hour session; for Stimulation Efficacy: ratio of the maximal stimulant effect of the test compound to the maximal effect of (+)-amphetamine.

The target of series [3] is α2-receptors. The series is described as follows: Alpha-2 binding, p-125iodoclonidine, canine brain (frontal cortex) membranes. On the set-up: species or system mongrel dogs. As to conditions: for pKd: canine cerebral cortex membranes; for pKi: Ki = IC50 / 1 + I/Kd, Kd from saturation analysis, unit inferred; for pIC50: inhibition of 50% of specific p-iodoclonidine binding, mean of several test samples. As for the experimental part:
• PULMONARY ALPHA-1 AND BETA-2 RECEPTORS. The lungs of mongrel dogs were separated from cartilaginous airways and major blood vessels, weighed, chopped and placed into 10 volumes of ice-cold buffered sucrose (50 mM Tris-HCl, pH 7.4, 1 mM EGTA, 0.32 M sucrose). The tissue was then homogenized in a type PT10/35, size 89/PTA 20S, Polytron tissue homogenizer (Kinematica, Westbury, NY). The homogenate was filtered through two layers of cheesecloth, and the filtrate was dounced three times using a 55 ml Con-Torque Potter homogenizer (Eberbach Corporation, Ann Arbor, Ml). […] The supematant was re-centrifuged at 30,000 x g for 30 minutes at 4°C and the resulting pellet was washed and resuspended in 10 volumes of Tris buffer (50 mM Tris HCL, pH 7.4, 1 mM EGTA) and incubated at 37°C for 30 minutes in a shaking water bath. The suspension was centrifuged at 4°C at 30,000 x g for 30 minutes and the resulting pellet washed in 10 volumes of Tris buffer for a total of three additional centrifugations and washes. […] Protein concentration was determined by the Lowry method and the final suspension was adjusted to 10 mg of protein/ml, aliquoted and stored at -90°C. Particulates were also prepared for β2 receptors using the identical procedure except the final protein concentration was adjusted to 0.1 mg/ml. • BRAIN ALPHA-2 RECEPTORS: Membranes of mongrel dogs were harvested from the canine frontal cortex and prepared as described above with respect to the lungs, except that the final membrane protein concentration was adjusted to 0.5 mg/ml.
Nonspecific binding was determined for each concentration point in separate incubations using 10 µM phentolamine. Each experimental point was determined in triplicate. […] All binding assay incubations were terminated by rapid dilution with 2 ml of ice-cold wash buffer (50 mM Tris-HCl, pH 7.4) and filtration through FP-100 Whatman GF/B fired filters (Biomedical Research & Development Lab, Gaithersburg, MD) using a Brandel receptor-binding harvester. The filters were washed twice more with 4 ml of wash buffer and then added to 6 ml Cytoscint (ICN, Costa Mesa CA) for liquid scintillation counting (Barnes et al., 23 MOL. PHARMACOL. 570-75 (1983)). […] Nonspecific binding was determined in separate incubations in the presence of 10 µM phentolamine. The final concentration of p-iodoclonidine was 44-45 pM in competition studies and between 50 pM and 10 nM in saturation experiments. Bound and free p-^125 iodoclonidine were separated and the bound quantitated as described below for the ICYP assays. […] Nonspecific binding was determined in separate incubations in the presence of 2 µM d,I-propranolol. Each experimental point was determined in triplicate. […] Incubations were terminated as described above for the α1 assays. Filters were placed into polyethylene tubes and the bound ligand was determined by gamma spectrometry(Sano et al., 52 LIFE SCIENCES 1063-70 (1993)).
All data were analyzed with the aid of microcomputer nonlinear curve fitting programs (PRISM 2.0, Graphpad Software, San Diego CA).
The receptors resident in each of the three membrane preparations were evaluated by standard saturation analysis following the addition of increasing concentrations of the appropriate radioligand.
The radioligand added for subsequent α2-displacement assays was adjusted to evaluate only the high affinity receptor. Contributions from p-iodoclonidine binding to imidazoline receptors in the α2- displacement assay was evaluated with epinephrine.

Series [4] can be described thus: Dosage required to raise mean arterial pressure (MAP) by 10% in dogs. Type of series: in vivo. As to conditions: experimentally determined. As for the experimental part: (§1) Nasal airway pressure was measured using a Validyne pressure transducer (Validyne Engineering, Northridge, CA) with a 2.25 cm H2O range membrane connected to a multipen recorder (Grass Instruments, Quincy, MA). Air was passed through an in-line direct measure flow meter (Gilmont Instruments, Barrington, IL) connected to the nasal opening cannula. Pressure was measured in the line with a constant flow rate (150 ml/min) of air. Drugs were directly injected into the jugular vein using a 30 gauge needle. All injections were of a constant 0.1 ml volume. In the congestion challenged groups congestion was achieved by an intranasal administration of histamine (50 mM, 0.02 ml/nostril). The histamine was expelled after 2 minutes with a short nasal cannula airflow and subsequent enantiomeric drug doses were directly injected into the jugular vein. The dosage chosen for each drug was the amount needed to increase the mean arterial pressure (MAP) of the animal by 10%; this dosage served as the "100%" dose for the initial nasal airway studies. […] The dosage required for rats was calculated by proportionately adjusting the experimentally determined dog dosage to account for the lesser weight of the rats.

Series [5] is described as follows: Nasal airway pressure (decongestant activity) in normal and histamine-challenged rats. Type of series: in vivo, Sprague Dawley rats. As to conditions: for Mean Decrease in Nasal Airway Pressure: mean ± standard error; for Post Drug nasal airway pressure: 100% dose into the jugular vein; for %Change in nasal airway pressure: 100% dose.
The nature of series [6]: Rat dosage calculated from the dog dosage that raises MAP by 10%. Type of series: in vivo. Particulars: calculated from the dog dosage by proportionately decreasing for the lesser weight of the rat; absolute dosage. As for the experimental part: as §1
Series [7] has as its system Male Swiss-Webster mice. The series is described as follows: H1 antihistamine (triprolidine) interaction studies, locomotor activity. Particulars: for interaction with triprolidine pretreatment (central nervous system stimulation, horizontal movement): pretreatment with 0.01, 0.1, or 1.0 mg/kg triprolidine 20 minutes before the sympathomimetic.
Series [8] has as its target α1-receptors. The series is described as follows: Alpha-1 binding, 3H-prazocin, canine lung membranes. Also on record: species or system mongrel dogs. Particulars: for pKi: Ki = IC50 / 1 + I/Kd, Kd from saturation analysis, unit inferred.
Where [9] appears, read: 5% of the dose that increased canine resting mean arterial pressure 10%, rats.
Setting [10] is: 10% of the dose that increased canine resting mean arterial pressure 10%, rats.
Where [11] appears, read: 25% of the dose that increased canine resting mean arterial pressure 10%, rats.
Where [12] appears, read: 50% of the dose that increased canine resting mean arterial pressure 10%, rats.
Where [13] appears, read: histamine-challenged rats (50 mM, 0.02 ml/nostril).
The mark [14] stands for this setting: histamine-challenged rats, relative to post-histamine level.
Where [15] appears, read: non-histamine-challenged rats, relative to control.

T1 sequence (P54833 whole entry): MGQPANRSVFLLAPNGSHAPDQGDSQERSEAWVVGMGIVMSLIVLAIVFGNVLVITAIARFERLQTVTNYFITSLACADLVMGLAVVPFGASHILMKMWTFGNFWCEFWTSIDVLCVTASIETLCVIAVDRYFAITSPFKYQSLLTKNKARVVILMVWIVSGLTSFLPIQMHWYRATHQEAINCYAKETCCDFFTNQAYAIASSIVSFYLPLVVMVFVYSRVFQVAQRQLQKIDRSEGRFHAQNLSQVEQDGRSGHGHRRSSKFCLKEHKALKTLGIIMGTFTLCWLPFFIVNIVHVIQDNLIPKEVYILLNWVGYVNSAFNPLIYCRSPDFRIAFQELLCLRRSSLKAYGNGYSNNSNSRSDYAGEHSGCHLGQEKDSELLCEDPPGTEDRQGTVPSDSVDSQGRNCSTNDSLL

The pKd is the Kd on a negative log10 scale, so that one unit is a factor of ten. For the compound `CC(C)(C)NCC(O)COc1cccc2[nH]c(C#N)c(I)c12` (stereo not drawn) [ICYP, iodocyanopindolol], the pKd in series [1] (Saturation Analysis, Run 1) was 11.02; in series [1] (Saturation Analysis, Run 2) it was 11.03; in series [1] (Saturation Analysis, Summary), 11.02; in series [1] (Scatchard Analysis, Run 1), 11.00; in series [1] (Scatchard Analysis, Run 2) it was 11.11; in series [1] (Scatchard Analysis, Summary), 11.05.

The term ED50 denotes the dose at which the effect has come halfway, by size or by number of responders. For the compound `CC(N)Cc1ccccc1` (single isomer, unassigned; (+)) [(+)-amphetamine], in series [2], the ED50 was 1.3 mg/kg; the “locomotor stimulant effects, time course (in words)” value (shortened to “locomotor stimulant effects”) is “dose- and time-dependent increase in the distance traversed”.

With `Clc1cc(I)cc(Cl)c1NC1=NCCN1` [p-iodoclonidine], the pKd in series [3] (Saturation Analysis, read-out: Kd 1 (high affinity)) is 9.82; in series [3] (Saturation Analysis, read-out: Kd 2 (high affinity)), 8.52; in series [3] (Scatchard Analysis, read-out: Kd 1 (high affinity)), 9.82; in series [3] (Scatchard Analysis, read-out: Kd 2 (low affinity)) it was 9.06.

Turning to `CC(C)(C)NCC(O)COc1cccc2[nH]c(C#N)c([125I])c12` (stereo not drawn) [ICYP, iodocyanopindolol], the Bmax in series [1] (Saturation Analysis, Run 1) is 149 femtomoles per mg protein; in series [1] (Saturation Analysis, Run 2), 142 femtomoles per mg protein; in series [1] (Saturation Analysis, Summary), 146 femtomoles per mg protein; in series [1] (Scatchard Analysis, Run 1), 150 femtomoles per mg protein; in series [1] (Scatchard Analysis, Run 2) it was 139 femtomoles per mg protein; in series [1] (Scatchard Analysis, Summary), 145 femtomoles per mg protein.

The term pKi denotes the Ki on a negative log10 scale, so that one unit is a factor of ten. A word on the pIC50: it is the IC50 on a negative log10 scale, so that one unit is a factor of ten. On to `CN[C@@H](C)[C@@H](O)c1ccccc1` [(+)-pseudoephedrine], for which the values for the pKi in series [3] and in series [8] were […] and 3.52, respectively. The same compound showed a pIC50 in series [3] of […]. In addition, in series [4], the “Dosage of Enantiomer, Dog: dosage required to raise MAP by 10%” value (“Dosage of Enantiomer, Dog … by 10%” for short) was 200 µg/kg. For the same compound, the “Mean Decrease in Nasal Airway Pressure” value in series [5] (setting [9]) is recorded as […]; in series [5] (setting [10]) it was -6.8 ± 3.6; in series [5] (setting [11]), -13.5 ± 4.3; in series [5] (setting [12]) it was […]. Also, the figures for the “Post Drug nasal airway pressure” value in series [5] (setting [13]) and in series [5] (non-histamine-challenged rats) were 6.1 ±1.5 mm water and 7 ± 0.9 mm H2O, respectively. The “%Change in nasal airway pressure” value in series [5] (setting [14]) is -36.7 ±2.7%; in series [5] (setting [15]), […]. For the same compound, in series [6], the “Dosage of Enantiomer, Rat” value is 60 µg. Moreover, the ED50 in series [2] turned out to be 12.6 mg/kg. In series [2], the “locomotor stimulant effects” value is recorded as “Little or no stimulant effects”. For the same compound, the “Stimulation Efficacy” value in series [2] was determined as […]. The “interaction with triprolidine pretreatment (central nervous system stimulation, horizontal movement)” value in series [7] is “increased horizontal movement”.

With `CNC[C@H](O)c1cccc(O)c1` [(-)-phenylephrine], the “Dosage of Enantiomer, Dog … by 10%” value in series [4] amounted to 10 µg/kg. Further, the “Mean Decrease in Nasal Airway Pressure” value in series [5] (setting [9]) is -1.6 ± 0.9; in series [5] (setting [10]), -4.8 ± 0.8; in series [5] (setting [11]), -12.1 ± 2.3; in series [5] (setting [12]), -5.2 ± 1.6. The “Post Drug nasal airway pressure” value came to 10.5 ±2.1 mm water in series [5] (setting [13]) and 4 ± 0.2 mm H2O in series [5] (non-histamine-challenged rats). For the same compound, the “%Change in nasal airway pressure” value in series [5] (setting [14]) is on record as -22.3 ±8.5%; in series [5] (setting [15]), -20.3 ± 4.3%. In series [6], the “Dosage of Enantiomer, Rat” value is 3 to 5 µg. Moreover, in series [2], the “Stimulation Efficacy” value worked out at 0. Further, in series [8], the pIC50 is 5.15. Moreover, the pKi in series [8] was 5.52.

With `CN[C@H](C)[C@@H](O)c1ccccc1` [(+)-ephedrine], the figures for the pKi in series [3] and in series [8] were […] and 4.40, respectively. The compound also showed a negative-log IC50 (pIC50) in series [3] of […]. Besides, the “Dosage of Enantiomer, Dog … by 10%” value in series [4] is given as 200 µg/kg. Besides, the “Mean Decrease in Nasal Airway Pressure” value in series [5] (setting [9]) is -2.6 ± 1.0; in series [5] (setting [10]) it was 3.0 ± 1.0; in series [5] (setting [11]) it was -0.1 ± 1.4; in series [5] (setting [12]), -1.0 ± 3.3. Besides, in series [5] (75% dose, rats), the “effect on normal airway decongestion (in words)” value was “approximately the same efficacious effect on normal airway decongestion”. The “Post Drug nasal airway pressure” value stood at 8.2 ± 0.3 mm water in series [5] (setting [13]) and 7 ± 0.9 mm H2O in series [5] (non-histamine-challenged rats). Further, the “%Change in nasal airway pressure” value is listed as […] in series [5] (setting [14]) and […] in series [5] (setting [15]). Also, the “Dosage of Enantiomer, Rat” value in series [6] is 60 µg. In addition, in series [2], the ED50 came to 84.9 mg/kg. The “locomotor stimulant effects” value in series [2] was “small increase in locomotor activity”. In addition, the “Stimulation Efficacy” value in series [2] was 0.25. The “interaction with triprolidine pretreatment (central nervous system stimulation, horizontal movement)” value in series [7] is listed as “No such central nervous system stimulation”.

As for `CNC[C@H](O)c1ccc(O)c(O)c1` [Epinephrine, epinephrine], in series [3] (check for binding to imidazoline receptors in the α2-displacement assay), the “displacement of bound p-iodoclonidine” value is reported as “easily displaced all bound p-iodoclonidine”.

In the case of `Cc1ccc(/C(=C\CN2CCCC2)c2ccccn2)cc1` [triprolidine], the “effect on horizontal distance, triprolidine alone” value in series [7] (0.25 to 25 mg/kg, injected immediately prior to testing, 2-hour test period) is recorded as “failed to affect horizontal distance”. Also, in series [7] (50 and 100 mg/kg, beginning within 10 minutes, lasting 30 to 40 minutes), the “effect on locomotion, triprolidine alone” value is reported as “Dose-dependent depression of locomotion”.
